The source of these data is patent publication US6500853B1, “Inhibitors of phospholipase enzymes” (Genetics Institute, LLC, priority 1998, dated 2002).

This test has as its target T1, cPLA2 (Homo sapiens, UniProt P47712).
T1 sequence (P47712 1-749): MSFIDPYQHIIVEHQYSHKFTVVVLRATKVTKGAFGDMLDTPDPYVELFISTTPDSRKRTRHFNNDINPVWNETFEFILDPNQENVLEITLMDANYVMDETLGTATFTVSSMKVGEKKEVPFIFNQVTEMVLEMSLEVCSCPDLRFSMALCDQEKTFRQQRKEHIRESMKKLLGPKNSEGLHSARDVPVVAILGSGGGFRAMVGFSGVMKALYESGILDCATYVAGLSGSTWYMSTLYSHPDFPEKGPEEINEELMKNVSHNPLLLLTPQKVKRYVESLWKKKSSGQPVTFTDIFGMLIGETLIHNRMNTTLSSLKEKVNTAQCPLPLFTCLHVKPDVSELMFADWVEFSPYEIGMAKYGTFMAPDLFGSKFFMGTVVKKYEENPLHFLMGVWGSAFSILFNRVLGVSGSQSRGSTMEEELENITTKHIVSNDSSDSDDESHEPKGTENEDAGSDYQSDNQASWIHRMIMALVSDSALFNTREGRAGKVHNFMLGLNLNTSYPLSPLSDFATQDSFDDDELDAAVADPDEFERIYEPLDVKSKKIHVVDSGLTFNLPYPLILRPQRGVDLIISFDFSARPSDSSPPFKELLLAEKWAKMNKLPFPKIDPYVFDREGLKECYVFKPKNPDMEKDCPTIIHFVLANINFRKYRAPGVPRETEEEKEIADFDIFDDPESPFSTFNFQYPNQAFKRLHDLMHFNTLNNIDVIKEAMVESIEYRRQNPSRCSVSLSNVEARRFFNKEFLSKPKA
Description: Coumarin Assay (cPLA2 inhibition). The conditions noted are these: for inhibition at 8 µM: CONCENTRATION 8 micromolar; for inhibition at 2.4 µM: Conc 2.4 uM; for inhibition at 2.5 µM: CONCENTRATION 2.5 micromolar. The test is classed as biochemical. On the procedure: Table I reports data for the compounds described in the examples above in cPLA2 inhibition assays (described below). In the data columns of Tables I and II, assay results are reported as a percent inhibition at the concentration specified.
7-hydroxycoumarinyl 6-heptenoate was used as a monomeric substrate for cPLA2 as reported previously (Huang, Z. et al., 1994, Nalytical Biochemistry 222, 110-115). Inhibitors were mixed with 200 μL assay buffer (80 mM Heped, pH 7.5, 1 mM EDTA) containing 60 μM 7-hydroxycoumarinyl 6-heptenoate. The reaction was initiated by adding 4 μg cPLA2 in 50 μL assay buffer. Hydrolysis of the 7-hydroxycounarimyl 6-heptenoate ester was monitored in a fluorometer by exciting at 360 nm and monitoring emission at 460 nm. Enzyme activity is proportional to the increase in emission at 460 nm per minute. In the presence of a cPLA2 inhibitor, the rate of increase is less. The percent inhibition for corresponding concentrations of compounds herein in this Coumarin assay are provided below in Table I.

Read-outs that look alike come from different tables or passages of the source.

On to `COc1cc(C(=O)NS(=O)(=O)c2ccccc2C)ccc1Cc1cn(C(c2ccccc2)c2ccccc2)c2ccc([N+](=O)[O-])cc12` [Example 36, N-{4-[(1-benzhydryl-5-nitro-1H-indol-3-yl)methyl]-3-methoxybenzoyl}-2-methylbenzenesulfonamide], for which the inhibition at 0.22 µM (CONCENTRATION 0.22 micromolar, read-out: PERCENT INHIBITION @) worked out at 50%. Moreover, the inhibition at 0.25 µM (CONCENTRATION 0.25 micromolar, read-out: PERCENT INHIBITION @) stood at 60%. Besides, for the setting “CONCENTRATION 0.32 micromolar, read-out: PERCENT INHIBITION @”, the inhibition at 0.32 µM was 50%. The inhibition at 0.45 µM (CONCENTRATION 0.45 micromolar, read-out: PERCENT INHIBITION @) was 50%.

Consider `Cc1c(CCS(=O)(=O)c2ccc(C(=O)O)cc2)c2cc(Cl)c(Cl)cc2n1C(c1ccccc1)c1ccccc1` [Example 142], for which the “% Inhibition” value (Conc 1.4 uM) amounted to 50%.

For the compound `O=C(O)CCC(=O)Nc1ccc(Cc2cn(C(c3ccccc3)c3ccccc3)c3cc(Cl)ccc23)cc1` [Example 123, 4-{4-[(1-benzhydryl-6-chloro-1H-indol-3-yl)methyl]anilino}-4-oxobutanooic acid], the “PERCENT INHIBITION @” value (CONCENTRATION 1.2 micromolar) was determined as 50%.

In the case of `Cc1c(CCS(=O)(=O)c2ccc(CCC(=O)O)cc2)c2cc(Cl)ccc2n1C(c1ccccc1)c1ccccc1` [Example 169, 3-(4-{[2-(1-Benzhydryl-5-chloro-2-methyl-1H-indol-3-yl)ethyl]sulfonyl}phenyl)propanoic acid], the inhibition at 0.45 µM (Conc 0.45 uM, read-out: % Inhibition) amounted to 50%.

For the compound `O=C(O)CN1C(=O)S/C(=C/c2cn(CCCOc3cccc(Cc4ccccc4)c3)c3ccccc23)C1=O` [Example 82C, 2-[5-((E)-{1-[3-(3-benzylphenoxy)propyl]-1H-indol-3-yl}methylidene)-2,4-dioxo-1,3-thiazolan-3-yl]acetic acid], the inhibition at 8 µM (read-out: PERCENT INHIBITION @) was 50%. The inhibition at 10 µM (CONCENTRATION 10 micromolar, read-out: PERCENT INHIBITION @) turned out to be 50%.

On to `O=C(O)C(=O)c1cn(Cc2ccc(C(F)(F)F)cc2C(F)(F)F)c2ccc(OCc3ccccc3)cc12` [Example 70, 2-{5-(benzyloxy)-1-[2,4-bis(trifluoromethyl)benzyl]-1H-indol3-yl}-2-oxoacetic acid], for which, under “CONCENTRATION 50 micromolar”, the “PERCENT INHIBITION @” value turned out to be 40%. The inhibition at 50 µM (CONCENTRATION 50 micromolar, read-out: PERCENT INHIBITION @) stood at 39%.

For `O=C(O)CCc1ccc(S(=O)(=O)CCc2c(CO)n(C(c3ccccc3)c3ccccc3)c3ccc(Cl)cc23)cc1` [Example 168, 3-[4-({2-[1-benzhydryl-5-chloro-2-(hydroxymethyl)-1H-indol-3-yl]ethyl}sulfonyl)phenyl]propanoic acid], the inhibition at 2.4 µM (read-out: % Inhibition) turned out to be 50%.

Take `Cc1c(CCSc2ccc(CCC(=O)O)cc2)c2cc(Cl)ccc2n1C(c1ccccc1)c1ccccc1` [Example 170, 3-(4 {[2-(1-benzhydryl-5-chloro-2-methyl-1H-indol-3-yl)ethyl]sulfanyl}phenyl)propanoic acid]: where the note is “Conc 0.5 uM, read-out: % Inhibition”, the inhibition at 0.5 µM was 50%.

In the case of `Cc1c(CCS(=O)(=O)c2ccc(C(=O)O)cc2)c2cc(F)ccc2n1C(c1ccccc1)c1ccccc1` [Example 139, 4-{[2-(1-benzhydryl-5-fluoro-2-methyl-1H-indol-3-yl)ethyl]sulfonyl}benzoic acid], the inhibition at 1.6 µM (Conc 1.6 uM, read-out: % Inhibition) amounted to 50%.

As for `O=C(O)c1ccc(OCCc2c(COCc3ccncc3)n(C(c3ccccc3)c3ccccc3)c3ccc(Cl)cc23)cc1` [Example 159, 4-(2-{1-benzhydryl-5-chloro-2-[(4-pyridinylmethoxy)methyl]-1H-indol-3-yl}ethoxy)benzoic acid], the inhibition at 4.2 µM (Conc 4.2 uM, read-out: % Inhibition) is 50%.

Regarding `O=C(O)COc1ccc(Cc2cn(C(c3ccccc3)c3ccccc3)c3cc(Cl)ccc23)cc1` [Example 119, 2-{4-[(1-benzhydryl-6-chloro-1H-indol-3-yl)methyl]phenoxy}acetic acid], for the setting “read-out: PERCENT INHIBITION @”, the inhibition at 2.5 µM is 50%.

As for `N#Cc1ccc(COCc2c(CCOc3ccc(C(=O)O)cc3)c3cc(Cl)ccc3n2C(c2ccccc2)c2ccccc2)cc1` [Example 163, 4-[2-(1-benzhydryl-5-chloro-2{[(4-cynobenzyl)oxy]methyl}-1H-indol-3-yl)ethoxy]benzoic acid], for the setting “Conc 1.25 uM”, the “% Inhibition” value stood at 50%.

`O=C(O)C(=O)Nc1ccc(Cc2cn(C(c3ccccc3)c3ccccc3)c3cc(Cl)ccc23)cc1` [Example 125, 2-{4-[(1-benzhydryl-6-chloro-1H-indol-3-yl)methyl]anilino}-2-oxoacetic acid]: the inhibition at 0.8 µM (CONCENTRATION 0.8 micromolar, read-out: PERCENT INHIBITION @) came to 50%.

`Cn1c(CSc2ccc3ccccc3c2)c(C(=O)C(=O)Nc2cccc(C(=O)O)c2)c2cc(OCc3ccccc3)ccc21` [Example 113, 3-[(2-{5-(benzyloxy)-1-methyl-2-[(2-naphthylsulfanyl)methyl]-1H-indol-3-yl}-2-oxoacetyl)amino]benzoic acid]: for the setting “CONCENTRATION 7.5 micromolar, read-out: PERCENT INHIBITION @”, the inhibition at 7.5 µM is 50%. Further, the inhibition at 8 µM (read-out: PERCENT INHIBITION @) is 50%.

For the compound `Cc1c(CCS(=O)(=O)c2ccc(C(=O)O)cc2)c2cc(Cl)ccc2n1C(c1ccccc1)c1ccccc1` [Example 147, 4-{[2-(1-benzhydryl-5-chloro-2-methyl-1H-indol-3-yl)ethyl]sulfonyl}benzoic acid], for the setting “read-out: % Inhibition”, the inhibition at 2.4 µM amounted to 50%.

Turning to `COc1cc(C(=O)NS(=O)(=O)c2c(C)noc2C)ccc1Cc1cn(C(c2ccccc2)c2ccccc2)c2ccc(NC(=O)OC3CCCC3)cc12` [Example 33, cyclopentyl N-{1-benzhydryl-3-[4-({[(3,5-dimethyl-4-isoxazolyl)sulfonyl]amino}carbonyl)-2-methoxybenzyl]-1H-indol-5-yl}carbamate], the inhibition at 4.4 µM (CONCENTRATION 4.4 micromolar, read-out: PERCENT INHIBITION @) worked out at 50%. Also, the inhibition at 4.9 µM (CONCENTRATION 4.9 micromolar, read-out: PERCENT INHIBITION @) worked out at 50%.

In the case of `COc1cc(C(=O)NS(=O)(=O)c2ccccc2C)ccc1Cc1cn(Cc2ccncc2)c2ccc(NC(=O)OC3CCCC3)cc12` [Example 22, Cyclopentyl N-[3-[2-methoxy-4-({[(2-methylphenyl)sulfonyl]amino}carbonyl)benzyl]-1-(4-pyridinylmethyl)-1H-indol-5-yl]carbamate], the inhibition at 38 µM (CONCENTRATION 38 micromolar, read-out: PERCENT INHIBITION @) was found to be 50%. Moreover, for the setting “CONCENTRATION 40 micromolar, read-out: PERCENT INHIBITION @”, the inhibition at 40 µM came out at 50%.

Regarding `COc1cc(C(=O)NS(=O)(=O)c2nnc(NC(C)=O)s2)ccc1Cc1cn(C(c2ccccc2)c2ccccc2)c2ccc(NC(=O)OC3CCCC3)cc12` [Example 34, cyclopentyl N-(3-{4-[({[5-(acetylamino)-1,3,4-thiadiazol-2-yl]sulfonyl}amino)carbonyl]-2-methoxybenzyl}-1-benzhydryl-1H-indol-5-yl)carbamate], the inhibition at 2 µM (CONCENTRATION 2 micromolar, read-out: PERCENT INHIBITION @) amounted to 50%. For the setting “read-out: PERCENT INHIBITION @”, the inhibition at 2.5 µM amounted to 57%.

For `COc1cc(C(=O)NCC(=O)O)ccc1Cc1cn(C(c2ccccc2)c2ccccc2)c2cc(Cl)ccc12` [Example 138, 2-({4-[(1-benzhydryl-6-chloro-1H-indol-3-yl)methyl]-3-methoxybenzoyl}amino)acetic acid], the inhibition at 0.4 µM (CONCENTRATION 0.4 micromolar, read-out: PERCENT INHIBITION @) worked out at 50%.

In the case of `O=C(O)C1CC1Cc1cn(C(c2ccccc2)c2ccccc2)c2cc(Cl)ccc12` (stereo not drawn) [Example 126, 2-[(1-benzhydryl-6-chloro-1H-indol-3-yl)methyl]cyclopropanecarboxylic acid], the inhibition at 5.5 µM (CONCENTRATION 5.5 micromolar, read-out: PERCENT INHIBITION @) was 50%.

As to `O=C(O)c1ccc(OCCc2c(COCc3ccc(F)cc3F)n(C(c3ccccc3)c3ccccc3)c3ccc(Cl)cc23)cc1` [Example 162, 4-[2-(1-benzhydryl-5-chloro-2{[(2,4-difluorobenzyl)oxy]methyl}-1H-indol-3-yl)ethoxy]benzoic acid], the inhibition at 1.5 µM (Conc 1.5 uM, read-out: % Inhibition) was found to be 50%.
